The values below come from patent US20160010154A1, “SCREENING ASSAYS FOR THERAPEUTICS FOR PARKINSON'S DISEASE” (THE PARKINSON'S INSTITUTE, priority 2012, published 2016).

The subject of experiment [1] is LRRK2 mutant and ZFN-corrected NPCs. As to the kind of experiment: Mitochondrial calcein retention (MTP opening), HCI microscopy. It counts as cell-based, human. The note with it: rotenone stress, corrected and LRRK2 mutant lines. The procedure:
Cells grown on high glucose (HG) with or without 20 uM rotenone (R) or with radical generator TBHP (200 uM). Cells were analyzed by flow cytometry and mean CM-DCFDA fluorescence (Ex./Em. 495/529 nm) of live cells was then normalized to number of viable cells. […] Images: Depicted are representative image overlays showing mitochondrial fluorescence patterns indicative of mitochondrial membrane potential for the corrected (1.7) and uncorrected (1.13) NPCs. […] Mitochondria were loaded with calcein AM and cytosolic fluorescence was quenched by CoCl2. Graph: Relative amount of mitochondrial localized calcein fluorescence identified by Mitotracker™ Red CMXROS co-localization was normalized to cell number. Images: Representative image overlays showing mitochondrial fluorescence patterns indicative of mitochondrial calcein retention and mitochondrial integrity in corrected (1.7) and uncorrected (1.13) NPCs. FIG. 4D is a graph showing HCI analysis of caspase 3/7 activation in LRRK2 NPCs measured by fluorescence activated by caspase 3/7 mediated cleavage of a DEVD peptide-DNA dye conjugate. NPCs were incubated with the caspase substrate and the % of caspase substrate fluorescence positive cells (identified by nuclear Hoechst 33342 counterstain) was determined from 4 sites acquired at 10× magnification. […]

Experiment [2] relates to LRRK2 G2019S mutant and ZFN-corrected NPCs. As to the kind of experiment: ROS production by CM-H2DCFDA fluorescence, flow cytometry. Format: cell-based, human. The following applies: 200 μM for 60 min, normal growth conditions, both cell lines. The procedure: Cells were assayed for free radical production using CM-H2DCFDA that can be oxidized and rendered fluorescent by hydroxyl radicals produced by mitochondria. See, e.g., Petronilli et al. (1999) Biophysical journal 76:725-734; Nicholls (2009) Biochimica et biophysica acta 1787:1416-1424. Cytoplasmic fluorescence of this indicator dye in viable cells was assayed by flow cytometry to obtain a signature for cellular oxidative stress.
In particular, for stress experiments, NPCs were seeded 24 hours before being cultured under the following selective media conditions for an additional 18 hours: Standard NPC growth medium as above (HG=high glucose), HG plus 20 μM rotenone (HG+R) (SIGMA # R-8875) or an NPC growth medium formulation based on HG medium without glucose (NG, Life Techn. Neurobasal-A, Formula 05-0128DJ).
For flow cytometry, NPCs were seeded at 80% confluence on either 24-well (1-2×10^5 cells) or 48 well plates (5×10^4 cells) (NUNC #s 142475, 150687) on Geltrex (100 ug/ml protein) coated plates 24 hours before the experiment and then challenged as described above. In general two replicate wells were analyzed in each experimental run. After the respective treatment, cells were sampled by flow cytometry with an Accuri™ C6 cytometer with C-Sampler™ (BD Accuri) and subsequently analyzed using the Cflow® analysis software. […]
In general terms: In flow cytometry, cells or beads pass a laser one at a time.

`C=C(C)[C@H]1Cc2c(ccc3c2O[C@@H]2COc4cc(OC)c(OC)cc4[C@@H]2C3=O)O1` [rotenone]: the mitochondrial calcein loading entry in experiment [1] is recorded as “increased mitochondrial calcein loading”.

For `CC(C)(C)OO` [TBHP], the “ROS response to radical generator” value in experiment [2] is reported as “increase of ROS”.
